Tested on: rat local cerebral ischemic model
Test: Cerebroprotective effect in a rat cerebral ischemic model (middle cerebral artery occlusion)
Format: in vivo
Settings: SD rats, 120 minutes occlusion; intravenous, immediately after reperfusion and after 2, 4 and 6 hours; measured two days after ischemia; p<0.05
Procedure: The compound obtained in Example 1 as an FAAH inhibitory agent (hereinafter, referred to as Compound A) was administered intravenously to a rat local cerebral ischemic model, and the inhibitory effect of the compound on cerebral infarct volume was examined. For the cerebral ischemic model, 8 weeks-old male SD rats (CLEA Japan, Inc.) were used to generate a middle cerebral artery occlusion model (Kiyota, et al., Experimental Brain Research, 95, 388-396 (1993)). That is, under halothane anesthesia, a silicone-coated plug was inserted into the rat from the right common carotid artery to the origin of middle cerebral artery to induce occlusion for 120 minutes. Compound A of Example was intravenously administered immediately after reperfusion and after 2, 4 and 6 hours, respectively. Two days after the ischemia treatment, the rat brain was extracted, 2 mm-thick slices of anterior maxillary section were prepared therefrom, and the cerebral infarct volume was measured from their TTC-stained images by image analysis.

**Q.** How did the “cerebral infarct volume compared with the solvent-administered group” value turn out when `O=C(Nc1noc2ccccc12)N1CCN(c2nc(-c3ccccc3)ns2)CC1` [Compound A] was run?
**A.** significantly smaller
